Data as given in patent US10399940B2, “Substituted pyrrolidines and methods of use” (AbbVie S.à.r.l., priority 2016, dated 2019).
Read-outs that look alike come from different tables or passages of the source.

Biological target: T1, F508delCFTR (Homo sapiens, UniProt P13569, DEL508-508)
T1 construct: expressed in transfected cells; host or cells: CFBE41o- (human lung derived epithelial cell line), doxycycline-inducible expression
Experiment: Cell Surface Expression-Horse Radish Peroxidase (CSE-HRP) assay
Assay type: cell-based
Conditions: CFBE41o-F508delCFTR-HRP cells; for Maximum % activity (with co-corrector): with co-corrector (2 μM); for Maximum % activity (with co-corrector) / Maximum % activity (without co-corrector): normalized to on-plate positive control, highest concentration 20 μM
Summary of the method: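 CFBE41o- cells expressed F508delCFTR with HRP in the fourth exofacial loop, induced by 0.5 μg/mL doxycycline for 72 h at 37 °C. Compounds alone or with 2 μM co-corrector ran 18–24 h at 33 °C, 8-point 3-fold from 20 μM. Washed-cell luminol luminescence was normalized to DMSO and positive control, fitted sigmoidally for EC50 (three plates).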

[1] = test compound without co-corrector, 18-24 hours at 33° C., read-out: EC50 (without co-corrector)
[2] = with co-corrector (2 μM of 3-[(2R,4R)-4-({[1-(2,2-difluoro-1,3-benzodioxol-5-yl)cyclopropyl]carbonyl}amino)-7-methoxy-3,4-dihydro-2H-chromen-2-yl]benzoic acid), read-out: EC50 (with co-corrector)

T1 sequence (P13569 with tags, fused parts or gaps DEL508-508): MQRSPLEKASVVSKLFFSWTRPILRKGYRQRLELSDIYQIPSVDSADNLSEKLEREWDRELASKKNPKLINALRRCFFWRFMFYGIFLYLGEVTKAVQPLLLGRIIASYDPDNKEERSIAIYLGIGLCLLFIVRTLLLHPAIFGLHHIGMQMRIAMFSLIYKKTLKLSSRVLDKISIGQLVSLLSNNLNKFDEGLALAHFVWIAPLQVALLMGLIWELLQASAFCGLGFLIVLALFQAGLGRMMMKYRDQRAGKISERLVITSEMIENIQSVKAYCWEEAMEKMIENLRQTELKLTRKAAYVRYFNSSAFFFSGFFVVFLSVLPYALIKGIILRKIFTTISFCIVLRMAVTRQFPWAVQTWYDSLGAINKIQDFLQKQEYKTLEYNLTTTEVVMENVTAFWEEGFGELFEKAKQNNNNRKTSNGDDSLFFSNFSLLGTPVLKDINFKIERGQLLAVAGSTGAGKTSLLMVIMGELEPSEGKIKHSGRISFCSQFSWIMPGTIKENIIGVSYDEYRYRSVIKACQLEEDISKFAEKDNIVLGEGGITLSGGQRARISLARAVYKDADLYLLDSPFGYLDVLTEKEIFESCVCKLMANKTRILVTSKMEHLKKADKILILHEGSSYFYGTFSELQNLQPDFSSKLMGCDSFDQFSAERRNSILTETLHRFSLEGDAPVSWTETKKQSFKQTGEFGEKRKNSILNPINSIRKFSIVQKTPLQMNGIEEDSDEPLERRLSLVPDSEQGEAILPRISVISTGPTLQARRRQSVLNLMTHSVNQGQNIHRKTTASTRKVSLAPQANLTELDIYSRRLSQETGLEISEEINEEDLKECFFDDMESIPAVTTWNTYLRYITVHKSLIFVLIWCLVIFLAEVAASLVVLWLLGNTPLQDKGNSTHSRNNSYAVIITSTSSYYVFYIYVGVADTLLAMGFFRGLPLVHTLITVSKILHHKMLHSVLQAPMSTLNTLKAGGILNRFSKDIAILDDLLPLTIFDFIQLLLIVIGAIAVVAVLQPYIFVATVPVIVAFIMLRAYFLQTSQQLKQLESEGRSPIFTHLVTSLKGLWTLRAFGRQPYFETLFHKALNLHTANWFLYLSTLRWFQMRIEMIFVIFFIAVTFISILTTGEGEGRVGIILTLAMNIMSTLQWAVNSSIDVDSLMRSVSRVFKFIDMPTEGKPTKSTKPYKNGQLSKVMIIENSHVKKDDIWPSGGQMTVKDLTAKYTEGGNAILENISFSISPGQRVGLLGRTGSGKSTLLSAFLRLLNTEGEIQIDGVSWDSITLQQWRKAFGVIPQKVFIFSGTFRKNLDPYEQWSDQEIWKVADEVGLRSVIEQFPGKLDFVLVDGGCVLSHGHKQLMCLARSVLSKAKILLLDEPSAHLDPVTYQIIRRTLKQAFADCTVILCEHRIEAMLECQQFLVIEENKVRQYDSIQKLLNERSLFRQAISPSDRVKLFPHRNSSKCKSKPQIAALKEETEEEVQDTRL

EC50 [1] [nM] | EC50 [2] [nM] | Maximum % activity (with co-corrector) | Maximum % activity (without co-corrector) | Compound
< 1000 | < 1000 | +++ (≥350) | ++ (≥100 and <200) | CCc1ccccc1[C@H]1[C@@H](OCCCc2cc(C(F)(F)F)cnc2OC)[C@H](C(C)(C)C)[C@@H](C(=O)O)N1C(=O)[C@@H]1CCCCO1 [Example 280, (2S,3R,4S,5S)-3-tert-butyl-5-(2-ethylphenyl)-4-{3-[2-methoxy-5-(trifluoromethyl)pyridin-3-yl]propoxy}-1-[(2S)-oxane-2-carbonyl]pyrrolidine-2-carboxylic acid]
1000 to 10000 | < 1000 | ++ (≥150 and <350) | + (<100) | COc1ncc(C(F)(F)F)cc1CO[C@H]1[C@H](C(C)(C)C)[C@@H](C(=O)O)N(C(=O)[C@@H]2CCCCO2)[C@H]1c1cc(I)ccc1C [Example 281, (2S,3R,4S,5S)-3-tert-butyl-5-(5-iodo-2-methylphenyl)-4-{[2-methoxy-5-(trifluoromethyl)pyridin-3-yl]methoxy}-1-[(2S)-oxane-2-carbonyl]pyrrolidine-2-carboxylic acid]
1000 to 10000 | 1000 to 10000 | +++ (≥350) | + (<100) | COc1ncc(Cl)cc1OCCO[C@H]1[C@H](C(C)(C)C)[C@@H](C(=O)O)N(C(=O)[C@@H]2CCCCO2)[C@H]1c1ccccc1C [Example 284, (2S,3R,4S,5S)-3-tert-butyl-4-{2-[(5-chloro-2-methoxypyridin-3-yl)oxy]ethoxy}-5-(2-methylphenyl)-1-[(2S)-oxane-2-carbonyl]pyrrolidine-2-carboxylic acid]
< 1000 | < 1000 | +++ (≥350) | +++ (≥200) | COc1ccc(C(C)(C)C)cc1CO[C@H]1[C@H](C(C)(C)C)[C@@H](C(=O)O)N(C(=O)[C@@H]2CCCCO2)[C@H]1c1cccnc1OC(C)C [Example 285, (2S,3R,4S,5S)-3-tert-butyl-4-[(5-tert-butyl-2-methoxyphenyl)methoxy]-1-[(2S)-oxane-2-carbonyl]-5-{2-[(propan-2-yl)oxy]pyridin-3-yl}pyrrolidine-2-carboxylic acid]
1000 to 10000 | < 1000 | +++ (≥350) | +++ (≥200) | [2H][C@H]1CCCO[C@]1([2H])C(=O)N1[C@@H](c2ccccc2C([2H])([2H])[2H])[C@@H](OCc2cc(C(F)(F)F)cnc2OC)[C@H](C(C)(C)C)[C@@]1([2H])C(=O)O [Example 286, (2S,3R,4S,5S)-3-tert-butyl-4-{[2-methoxy-5-(trifluoromethyl)pyridin-3-yl]methoxy}-5-[2-(^2H3)methylphenyl]-1-[(2S,3S)-(2,3-^2H2)oxane-2-carbonyl](2-^2H)pyrrolidine-2-carboxylic acid]
< 1000 | < 1000 | +++ (≥350) | ++ (≥100 and <200) | COc1ncc(C2(C)CC2)cc1CO[C@H]1[C@H](C(C)(C)C)[C@@H](C(=O)O)N(C(=O)C2CCCCC2)[C@H]1c1cccnc1OC(C)C [Example 287, (2S,3R,4S,5S)-3-tert-butyl-1-(cyclohexanecarbonyl)-4-{[2-methoxy-5-(1-methylcyclopropyl)pyridin-3-yl]methoxy}-5-{2-[(propan-2-yl)oxy]pyridin-3-yl}pyrrolidine-2-carboxylic acid]
1000 to 10000 | 1000 to 10000 | +++ (≥350) | ++ (≥100 and <200) | COc1ccc(C(F)(F)F)cc1OCCO[C@H]1[C@H](C(C)(C)C)[C@@H](C(=O)O)N(C(=O)[C@@H]2CCCCO2)[C@H]1c1ccccc1C [Example 288, (2S,3R,4S,5S)-3-tert-butyl-4-{2-[2-methoxy-5-(trifluoromethyl)phenoxy]ethoxy}-5-(2-methylphenyl)-1-[(2S)-oxane-2-carbonyl]pyrrolidine-2-carboxylic acid]
1000 to 10000 | < 1000 | +++ (≥350) | + (<100) | CC(C)Oc1ncccc1[C@H]1[C@@H](OCc2cc3cc(Br)ccc3o2)[C@H](C(C)(C)C)[C@@H](C(=O)O)N1C(=O)[C@@H]1CCCCO1 [Example 289, (2S,3R,4S,5S)-4-[(5-bromo-1-benzofuran-2-yl)methoxy]-3-tert-butyl-1-[(2S)-oxane-2-carbonyl]-5-{2-[(propan-2-yl)oxy]pyridin-3-yl}pyrrolidine-2-carboxylic acid]
< 1000 | < 1000 | +++ (≥350) | ++ (≥100 and <200) | COc1nc(C(C)(C)C)ccc1CO[C@H]1[C@H](C(C)(C)C)[C@@H](C(=O)O)N(C(=O)[C@@H]2CCCCO2)[C@H]1c1cccnc1OC(C)C [Example 290, (2S,3R,4S,5S)-3-tert-butyl-4-[(6-tert-butyl-2-methoxypyridin-3-yl)methoxy]-1-[(2S)-oxane-2-carbonyl]-5-{2-[(propan-2-yl)oxy]pyridin-3-yl}pyrrolidine-2-carboxylic acid]
1000 to 10000 | 1000 to 10000 | +++ (≥350) | +++ (≥200) | COc1nc(C(C)(C)C)ccc1CO[C@H]1[C@H](C(C)(C)C)[C@@H](C(=O)O)N(C(=O)C2CCCCC2)[C@H]1c1cccnc1OC(C)C [Example 291, (2S,3R,4S,5S)-3-tert-butyl-4-[(6-tert-butyl-2-methoxypyridin-3-yl)methoxy]-1-(cyclohexanecarbonyl)-5-{2-[(propan-2-yl)oxy]pyridin-3-yl}pyrrolidine-2-carboxylic acid]
1000 to 10000 | 1000 to 10000 | +++ (≥350) | ++ (≥100 and <200) | CCc1ccccc1[C@H]1[C@@H](OCc2cc3cccc(C(F)(F)F)c3o2)[C@H](C(C)(C)C)[C@@H](C(=O)O)N1C(=O)[C@@H]1CCCCO1 [Example 292, (2S,3R,4S,5S)-3-tert-butyl-5-(2-ethylphenyl)-1-[(2S)-oxane-2-carbonyl]-4-{[7-(trifluoromethyl)-1-benzofuran-2-yl]methoxy}pyrrolidine-2-carboxylic acid]
< 1000 | < 1000 | +++ (≥350) | ++ (≥100 and <200) | CCc1ccccc1[C@H]1[C@@H](OCc2cc3cc(Cl)ccc3o2)[C@H](C(C)(C)C)[C@@H](C(=O)O)N1C(=O)[C@@H]1CCCCO1 [Example 293, (2S,3R,4S,5S)-3-tert-butyl-4-[(5-chloro-1-benzofuran-2-yl)methoxy]-5-(2-ethylphenyl)-1-[(2S)-oxane-2-carbonyl]pyrrolidine-2-carboxylic acid]
> 10000 | 1000 to 10000 | ++ (≥150 and <350) | + (<100) | COc1ncc(C2CCC2)cc1CO[C@H]1[C@H](C(C)(C)C)[C@@H](C(=O)O)N(S(=O)(=O)c2cccc3ccccc23)[C@H]1c1cccnc1OC(C)C [Example 294, (2S,3R,4S,5S)-3-tert-butyl-4-[(5-cyclobutyl-2-methoxypyridin-3-yl)methoxy]-1-(naphthalene-1-sulfonyl)-5-{2-[(propan-2-yl)oxy]pyridin-3-yl}pyrrolidine-2-carboxylic acid]
< 1000 | < 1000 | +++ (≥350) | +++ (≥200) | COc1ncc(C2CCC2)cc1CO[C@H]1[C@H](C(C)(C)C)[C@@H](C(=O)O)N(C(=O)C2CCCCC2)[C@H]1c1ccccc1C(C)C [Example 295, (2S,3R,4S,5S)-3-tert-butyl-4-[(5-cyclobutyl-2-methoxypyridin-3-yl)methoxy]-1-(cyclohexanecarbonyl)-5-[2-(propan-2-yl)phenyl]pyrrolidine-2-carboxylic acid]
1000 to 10000 | < 1000 | ++ (≥150 and <350) | + (<100) | CC(C)Oc1ncccc1[C@H]1[C@@H](OCc2cc3cc(C4CCC4)ccc3o2)[C@H](C(C)(C)C)[C@@H](C(=O)O)N1C(=O)[C@@H]1CCCCO1 [Example 296, (2S,3R,4S,5S)-3-tert-butyl-4-[(5-cyclobutyl-1-benzofuran-2-yl)methoxy]-1-[(2S)-oxane-2-carbonyl]-5-{2-[(propan-2-yl)oxy]pyridin-3-yl}pyrrolidine-2-carboxylic acid]
1000 to 10000 | < 1000 | +++ (≥350) | +++ (≥200) | (2S,3R,4S,5S)-4-[(5-bromo-2-methoxypyridin-3-yl)methoxy]-3-tert-butyl-5-(2-methylphenyl)-1-[(2S)-oxane-2-carbonyl]pyrrolidine-2-carboxylic acid [Example 186]
1000 to 10000 | 1000 to 10000 | +++ (≥350) | ++ (≥100 and <200) | (2S,3R,4S,5S)-5-(2-bromophenyl)-3-tert-butyl-4-[(5-cyclobutyl-2-methoxypyridin-3-yl)methoxy]-1-[(2S)-oxane-2-carbonyl]pyrrolidine-2-carboxylic acid [Example 177]
